# What was measured:
# A2780 S cells = test: Two cell line test procedure, in vitro cytotoxicity (sulforhodamine B), A2780 S; assay type: cell-based; details: Homo sapiens, A2780S, 48 hours exposure
# Description: (§1) A2780 S and A2780 DDP cells [Biochemical and Molecular Properties of Cisplatin-resistant A2780 Cells Grown in Folinic Acid; Y. Lu, J. Hnan, and K. Scanlon, J. Biol. Chem., 263, 4891-4894, 1988.] are grown in RPMI 1640 medium containing 5% fetal calf serum, 50 µg/ml streptomycin, 50 units/ml penicillin, 50 µg/ml gentamycin, 0.03% L-glutamine, 1 nM estradiol, 1 nM testosterone, 5 µg/ml insulin, 5 µg/ml transferrin, and 5 ng/ml selenous acid, at 37°C, in a humidified atmosphere, containing 5% CO2. Experiments are done in the same media.
# (§2) Cells are plated at the concentration of 5 x 10^4/ml on Day 0 of the experiment. On Day one cells are fixed with trichloroacetic acid and 5 ten-fold dilutions of tested compounds are added, in duplicates, to the remaining cells. On Day 3 (48 hours exposure to drugs) all cells are fixed with trichloroacetic acid, stained with 0.4% sulforhodamine B, and absorbency is read at 520 nm. The IC50 (concentration causing 50% inhibition) are determined for each drug.
# A2780 DDP cells = test: Two cell line test procedure, in vitro cytotoxicity (sulforhodamine B), A2780 DDP; assay type: cell-based; details: Homo sapiens; A2780 DDP cells (cisplatin-resistant), 48 hours exposure
# Description: as §1, §2
# P388 Leukemia = test: Murine P388 leukemia, increase in mean life span; assay type: in vivo, CD2F1 mice; details: days 1,5,9
# Description: CD2F1 mice are injected i.p. with 1 x 10^6 tumor cells on Day 0 of the test. Drugs are administered i.p. on Days 1, 5, and 9 after the tumor implantation. Positive drug response is indicated by a more than 25% increase in the mean life span (% ILS), relative to placebo treated controls. Drugs are considered to be toxic when the mean life span of the drug treated animals is more than 15% shorter than placebo treated controls.
# [1] = tested on: Colon 26 Advanced, Metastatic Tumor; test: Murine Colon 26 advanced, metastatic tumor, increase in mean life span; assay type: in vivo, CD2F1 mice; details: days 5,9,13
# Description: CD2F1 mice are injected i.p. with 5 x 10^5 tumor cells on Day 0 of the test. Drugs are administered i.p. on Days 5, 9, and 13 after the tumor implantation. Positive drug response is indicated by a more than 25% increase in the mean life span (% ILS), relative to placebo treated controls. Drugs are considered to be toxic when the mean life span of the drug treated animals is more than 15% shorter than placebo treated controls.
# P388 = details: literature report; cited from earlier work
smiles,measurement,setting,value
"O=C(NCCN1CCCC1)c1cccn2c(=O)c3cc(-c4ccncc4)ccc3nc12 [Example 08, 11-Oxo-2-(4-pyridinyl)-N-[2-(1-pyrrolidinyl)ethyl]-11H-pyrido-[2,1-b]quinazoline-6-carboxamide]",IC50,A2780 S cells,0.8 µg/mL
same,IC50,A2780 DDP cells,3.7 µg/mL
"CN(C)CCNC(=O)c1cccn2c(=O)c3cc(-c4cccnc4)ccc3nc12 [Example 06, N-[2-(Dimethylamino)ethyl]-11-oxo-2-(3-pyridinyl)-11H-Pyrido-[2,1-b]quinazoline-6-carboxamide]",IC50,A2780 S cells,0.9 µg/mL
same,IC50,A2780 DDP cells,5 µg/mL
same,% ILS,"P388 Leukemia; P388, dose 50 mg/kg i.p.",+16%
same,% ILS,"P388 Leukemia; P388, dose 100 mg/kg i.p.",+22%
same,% ILS,"P388 Leukemia; P388, dose 200 mg/kg i.p.",+47%
same,% ILS,"[1]; COLON 26, dose 100 mg/kg i.p.",+9%
same,% ILS,"[1]; COLON 26, dose 200 mg/kg i.p.",+15%
same,% ILS,"[1]; COLON 26, dose 300 mg/kg i.p.",+21%
"CN(C)CCNC(=O)c1cccn2c(=O)c3cc(-c4ccncc4)ccc3nc12 [Example 07, N-[2-(Dimethylamino)ethyl]-11-oxo-2-(4-pyridinyl)-11H-pyrido-[2,1-b]quinazoline-6-carboxamide]",IC50,A2780 S cells,0.7 µg/mL
same,IC50,A2780 DDP cells,5.6 µg/mL
same,% ILS,"P388 Leukemia; P388, dose 50 mg/kg i.p.",+20%
same,% ILS,"P388 Leukemia; P388, dose 100 mg/kg i.p.",+29%
same,% ILS,"P388 Leukemia; P388, dose 200 mg/kg i.p.",+49%
same,% ILS,"[1]; COLON 26, dose 100 mg/kg i.p.",-15%
same,% ILS,"[1]; COLON 26, dose 200 mg/kg i.p.",-52%
same,% ILS,"[1]; COLON 26, dose 300 mg/kg i.p.",-58%
"CN(C)CCNC(=O)c1cccn2c(=O)c3ccc(-c4ccncc4)cc3nc12 [Example 16, N-[2-(Dimethylamino)ethyl]-11-oxo-3-(4-pyridinyl)-11H-pyrido-[2,1-b]quinazoline-6-carboxamide]",IC50,A2780 S cells,7 µg/mL
same,IC50,A2780 DDP cells,8.6 µg/mL
"CN(C)CCNC(=O)c1cccn2c(=O)c3cc(-c4cnc5ccccc5c4)ccc3nc12 [Example 10, N-[2-(Dimethylamino)ethyl]-11-oxo-2-(3-quinolinyl)-11H-pyrido[2,1-b]quinazoline-6-carboxamide]",IC50,A2780 S cells,4.5 µg/mL
same,IC50,A2780 DDP cells,5.3 µg/mL
"CC[C@]1(O)C[C@H]2CN(CCc3c([nH]c4ccccc34)[C@@](C(=O)OC)(c3cc4c(cc3OC)N(C=O)[C@H]3[C@@](O)(C(=O)OC)[C@H](OC(C)=O)[C@]5(CC)C=CCN6CC[C@]43[C@@H]65)C2)C1 [Vincristine, reference compound]",% ILS,"P388 Leukemia; P388, dose 0.8 mg/kg i.p.",+114%
"CN(C)CCNC(=O)c1cccn2c(=O)c3ccccc3nc12 [I, N-[2-(dimethylamino)ethyl]-11-oxo-11H-pyrido[2,1-b]quinalzoline-6-carboxamide]",activity in a P388 mouse model,P388,inactive
"COc1cccc2c1C(=O)c1c(O)c3c(c(O)c1C2=O)C[C@@](O)(C(=O)CO)C[C@@H]3O[C@H]1C[C@H](N)[C@H](O)[C@H](C)O1 [Adriamycin, reference compound]",% ILS,"[1]; COLON 26, dose 4 mg/kg i.p.",+70%
"CN(C)CCNC(=O)c1cccn2c(=O)c3ccc(-c4cccnc4)cc3nc12 [Example 15, N-[2-(Dimethylamino)ethyl]-11-oxo-3-(3-pyridinyl)-11H-pyrido-[2,1-b]quinazoline-6-carboxamide]",IC50,A2780 S cells,0.6 µg/mL
same,IC50,A2780 DDP cells,0.7 µg/mL
same,% ILS,"P388 Leukemia; P388, dose 50 mg/kg i.p.",+8%
same,% ILS,"P388 Leukemia; P388, dose 100 mg/kg i.p.",+18%
same,% ILS,"P388 Leukemia; P388, dose 200 mg/kg i.p.",+37%
same,% ILS,"[1]; COLON 26, dose 100 mg/kg i.p.",+15%
same,% ILS,"[1]; COLON 26, dose 200 mg/kg i.p.",+64%
same,% ILS,"[1]; COLON 26, dose 300 mg/kg i.p.",-3%

# — EP0944628B1, “HETERO-BIARYL-PYRIDOQUINAZOLINONE DERIVATIVES AS ANTI-CANCER AGENTS” (American Cyanamid Company, priority 1996, dated 1998)
